Assay results published in patent US9295641B2, “Compositions containing alpha-2-adrenergic agonist components” (Allergan, Inc., priority 2000, dated 2016).
Where two headings read alike, the source gives them in different places.

Columns and labels:
[1] = 23° C.
Description: The pH-solubility profile of brimonidine tartrate in an aqueous formulation (Ophthalmic Solution) was established in the pH range of about 5 to about 8 at 23° C. Table 1. […] Likewise, the temperature may be varied somewhat, for example, solubility curves may be performed at room temperature.
The formulation vehicle was prepared by first dissolving polyvinyl alcohol (PVA) in water. The PVA was added to approximately ⅓ of the required total amount of purified water with constant stirring. The slurry was stirred for 20-30 minutes and then heated to 80-95° C. with constant stirring. The mixture was removed from the heat source within 1 hour after having reached the temperature of 80-90° C. and stirred for an additional 10 minutes to ensure homogeneity (Part I). The other ingredients of the Ophthalmic Solution, except for brimonidine tartrate, were dissolved in a separate container with an additional ⅓ of the required total amount of purified water (Part II). The PVA mixture (Part I) was then quantitatively transferred to Part II using several rinse volumes of purified water. The solution was adjusted to final volume with purified water without pH adjustment.
Brimonidine tartrate was weighed and transferred to a 10 mL test tube containing 5 mL of the formulation vehicle described above. The pH of each sample was then adjusted to a desired value using dilute sodium hydroxide and/or dilute hydrochloric acid. The samples were placed in a rack on a stir plate and stirred at high speed to achieve uniform mixing for 2 days; a partition was placed between the rack and the stir plate to prevent any heat diffusion from the stir plate to the samples.
At the end of two days of stirring, the pH value of each sample was measured, and then approximately 1 mL of each sample was placed in a micro centrifuge tube (polypropylene) and centrifuged at 4,000 rpm for 10 minutes. The supernatant was filtered through a 1 μm filter unit (Whatman, […], PTFE). The first 3-4 drops of the filtrate were discarded; the rest of the filtrate was received and diluted quantitatively with HPLC mobile phase. The dilute sample was then injected directly on the HPLC column (Dupont Zorbax, 250 mm×4.6 mm, 5 μm) for brimonidine tartrate assay in order to quantify the amount of brimonidine tartrate. A control of 0.5% brimonidine tartrate was prepared in the same formulation vehicle at pH 6.3-6.5 and assayed before (untreated) and after (treated) centrifugation and filtration. This was done to evaluate the potential loss of brimonidine tartrate in these two steps of the sample preparation. To ensure reproducibility, the study was repeated on consecutive days.

[2] = for Solubility of Brimonidine tartrate: fifteen days
Description: The effect of pH on the solubility of brimonidine tartrate in liquid formulations with and without SECs was determined. Particularly, the effect of the presence or absence of various concentrations of an exemplary SEC, sodium carboxymethylcellulose (CMC), on the solubility of brimonidine tartrate at various pH conditions was determined. The various concentrations of CMC tested with Brimonidine tartrate were 0%, 0.056%, 0.17%, 0.5%, 1.5% (w/v), see Table III.
The samples tested also contained isotonic components, buffer components, and stabilized chlorine dioxide (Purite™), Table III. Sodium carboxymethylcellulose, sodium chloride, potassium chloride, calcium chloride dihydrate, and magnesium chloride hexahydrate were USP grade. Boric acid and sodium borate decahydrate were NF grade.
Each sample (1 through 5) was brought to various points within a range of pH values from about 7 to about 10. The vials containing the sample solutions were placed on a laboratory rotator and left to equilibrate for fifteen days at 21° C. The sample solutions were filtered using a 25 mm diameter polysulfone cellulose acetate syringe type filter with 0.45 μm pore size. The filtered solutions were assayed for the amount of brimonidine tartrate in solution.
Conventional HPLC and detection techniques were used to detect and determine the concentrations of soluble brimonidine tartrate. Solubility is plotted against pH for each CMC concentration. The experimental data points were fitted to a modified Henderson-Hasselbalch equation using a nonlinear least squares routine (Deltagraph version 4.0 DeltaPoint, Inc.), See FIG. 1.

[3] = composition including chlorite, equilibrated ten days
Description: Brimonidine tartrate is added to a test tube containing a composition including chlorite. The test tube was allowed to equilibrate for ten days. Samples obtained from the test tube are analyzed by HPLC using a size exclusion column in the presence or absence of a chaotrope, such as urea.

## 5-bromo-6-(2-imidozolin-2-ylamino)quinoxaline tartrate [Brimonidine tartrate]
[1]; STUDY 1, pH 5.55, Ophthalmic Solution, theoretical concentration based on sample weight, solution clear
  Solubility: > 16.44^b mgml^−1
[1]; STUDY 1, pH 5.92, Ophthalmic Solution
  Solubility: 13.26 mgml^−1
[1]; STUDY 1, pH 6.14, Ophthalmic Solution
  Solubility: 3.04 mgml^−1
[1]; STUDY 1, pH 6.57, Ophthalmic Solution
  Solubility: 0.755 mgml^−1
[1]; STUDY 1, pH 7.00, Ophthalmic Solution
  Solubility: 0.269 mgml^−1
[1]; STUDY 1, pH 7.45, Ophthalmic Solution
  Solubility: 0.117 mgml^−1
[1]; STUDY 1, pH 7.83, Ophthalmic Solution
  Solubility: 0.062 mgml^−1
[1]; STUDY 2, pH 5.50, Ophthalmic Solution, theoretical concentration based on sample weight, solution clear
  Solubility: > 20.06^b mgml^−1
[1]; STUDY 2, pH 5.92, Ophthalmic Solution
  Solubility: 16.08 mgml^−1
[1]; STUDY 2, pH 6.06, Ophthalmic Solution
  Solubility: 5.01 mgml^−1
[1]; STUDY 2, pH 6.90, Ophthalmic Solution
  Solubility: 0.319 mgml^−1
[1]; STUDY 2, pH 7.40, Ophthalmic Solution
  Solubility: 0.119 mgml^−1
[1]; STUDY 2, pH 7.77, Ophthalmic Solution
  Solubility: 0.063 mgml^−1
[1]; STUDY 2, pH 7.86, Ophthalmic Solution
  Solubility: 0.058 mgml^−1
[1]; STUDY 2, pH 7.88, Ophthalmic Solution
  Solubility: 0.054 mgml^−1
[2]; 0% CMC, pH 7.11, 21° C.
  Solubility of Brimonidine tartrate: 0.2064 % w/v
[2]; 0% CMC, pH 7.68, 21° C.
  Solubility of Brimonidine tartrate: 0.0786 % w/v
[2]; 0% CMC, pH 8.50, 21° C.
  Solubility of Brimonidine tartrate: 0.0286 % w/v
[2]; 0% CMC, pH 10.09, 21° C.
  Solubility of Brimonidine tartrate: 0.0218 % w/v
[2]; 0.056% CMC, pH 6.67, 21° C.
  Solubility of Brimonidine tartrate: 0.9302 % w/v
[2]; 0.056% CMC, pH 7.11, 21° C.
  Solubility of Brimonidine tartrate: 0.2828 % w/v
[2]; 0.056% CMC, pH 7.77, 21° C.
  Solubility of Brimonidine tartrate: 0.0721 % w/v
[2]; 0.056% CMC, pH 9.93, 21° C.
  Solubility of Brimonidine tartrate: 0.0234 % w/v
[2]; 0.17% CMC, pH 6.68, 21° C.
  Solubility of Brimonidine tartrate: 1.4200 % w/v
[2]; 0.17% CMC, pH 6.93, 21° C.
  Solubility of Brimonidine tartrate: 0.7302 % w/v
[2]; 0.17% CMC, pH 7.81, 21° C.
  Solubility of Brimonidine tartrate: 0.0735 % w/v
[2]; 0.17% CMC, pH 8.55, 21° C.
  Solubility of Brimonidine tartrate: 0.0328 % w/v
[2]; 0.17% CMC, pH 10.05, 21° C.
  Solubility of Brimonidine tartrate: 0.0241 % w/v
[2]; 0.5% CMC, pH 6.67, 21° C.
  Solubility of Brimonidine tartrate: 1.4464 % w/v
[2]; 0.5% CMC, pH 7.10, 21° C.
  Solubility of Brimonidine tartrate: 0.3693 % w/v
[2]; 0.5% CMC, pH 7.56, 21° C.
  Solubility of Brimonidine tartrate: 0.1451 % w/v
[2]; 0.5% CMC, pH 8.46, 21° C.
  Solubility of Brimonidine tartrate: 0.0313 % w/v
[2]; 0.5% CMC, pH 9.94, 21° C.
  Solubility of Brimonidine tartrate: 0.0250 % w/v
[2]; 1.5% CMC, pH 6.68, 21° C.
  Solubility of Brimonidine tartrate: 1.4256 % w/v
[2]; 1.5% CMC, pH 7.35, 21° C.
  Solubility of Brimonidine tartrate: 0.1904 % w/v
[2]; 1.5% CMC, pH 8.10, 21° C.
  Solubility of Brimonidine tartrate: 0.0498 % w/v
[2]; 1.5% CMC, pH 8.67, 21° C.
  Solubility of Brimonidine tartrate: 0.0311 % w/v
[2]; 1.5% CMC, pH 10.11, 21° C.
  Solubility of Brimonidine tartrate: 0.0222 % w/v
[2]; pH 7.5, 0% CMC
  Soluble Brimonidine tartrate (FIG. 1): 1000 ppm
[2]; pH 7.5, 0.056% CMC
  Soluble Brimonidine tartrate (FIG. 1): 1300 ppm
[2]; pH 7.5, 0.17% CMC
  Soluble Brimonidine tartrate (FIG. 1): 1300 ppm
[2]; pH 7.5, 0.5% CMC
  Soluble Brimonidine tartrate (FIG. 1): 1600 ppm
[2]; pH 7.5, 1.5% CMC
  Soluble Brimonidine tartrate (FIG. 1): about 1400 ppm
[3]
  Formation of dimers, by apparent molecular weights of brimonidine in solution: a portion of the brimonidine tartrate monomer units have conjugated to form dimmers

## Brc1c(NC2=NCCN2)ccc2nccnc12 [5-bromo-6-(2-imidozolin-2-ylamino)quinoxaline]
physchem
  pKa: ~7.4
